Assay results from article PMC12693182, “Synthesis and QSAR Studies of Claramine Derivatives, a New Class of Broad-Spectrum Antimicrobial Agents” (Molecules, 2025).
Values after ≈ are worked out from the molar mass of the structure shown. Where two headings read alike, the source gives them in different places.

What was measured:
[1] = test system: Chinese hamster Ovary cells (CHO-K1); test: Cytotoxicity assay (WST-1 / Neutral Red); type: cell-based; conditions: 24-h incubation; for IC50: Cricetulus griseus, 24 h
Method: The cytotoxic activities of compounds were assessed on Chinese hamster Ovary cells (CHO-K1) provided from ATCC-LGC Standards Sarl (Molsheim, France). Cells were maintained in Mc Coy’s 5A (CHO) medium supplemented with 10% bovine calf serum, 2 mM glutamine, and 100 U mL^−1/10 µg mL^−1 penicillin/streptomycin mixtures. For the cytotoxicity experiments, they were seeded in 96-well plates and incubated at 37 °C in humidified atmosphere containing 5% CO2 overnight, then concentrations of compounds were incorporated in triplicate cultures. After a 24-h incubation period at 37 °C, cells were submitted to three successive washes in phosphate buffer saline (PBS) and cell viability was evaluated by two different vital dyes: • i. A first set of cell cultures was incubated in PBS containing 10% WST-1 for 30 min at 37 °C, 5% CO2. Cell viability was evaluated by the assessment of WST-1 absorbance at 450 nm in a microplate spectrophotometer. • ii. A second set of cell cultures was placed into Neutral Red medium (50 μg mL^−1 Neutral Red in complete medium) and incubated for 3 h at 37 °C, 5% CO2. Then the Neutral Red medium was removed and the distaining solution (50% ethanol, 1% acetic acid, 49% distilled water; 50 µL per well) was added into the wells. The plates were shaken for 15–20 min at room temperature in the dark. Cell viability was evaluated by the assessment of absorbance at 540 nm in a microplate spectrophotometer.
Results were expressed as percentages of cell viability about the control (culture medium-only), which corresponded to 100% cell viability. Dose-response curves were calculated by non-linear regression analysis with TableCurve 2D software (V 5.0.1) (Systat Software Inc., San Jose, CA, USA). The Inhibitory Concentration 50% (IC50) was defined as the concentration of compounds that induced a 50% decrease of viable cells.

S. aureus ATCC 25923 = test: MIC, broth microdilution; type: cell-based, Staphylococcus aureus; conditions: Staphylococcus aureus, ATCC25923, 24 h, ATCC strain
Method: (§1) Antimicrobial activity of the compounds was studied by determination of minimal inhibitory concentrations (MIC) according to the NCCLS guidelines M7-A2 using the microbroth dilution methods. The bacteria strains were grown on trypticase soy agar (Becton Dickinson) at 37 °C for 24 h. Inocula were prepared in TCE (tryptone 0.1%, […], wt/vol) by ajusting the turbidity at 623 nm to obtain 1–3 10^5 CFU/mL.
(§2) Antimicrobial activities of the compounds were determined by using a broth microdilution method performed in sterile 96-well microplates. All compounds were solubilized in water at a concentration of 10 mM and were transferred to each microplate well in order to obtain a two-fold serial dilution in 100 µL of broth and 100 µL of inoculum containing 2–6 10^5 CFU of each bacterium were added to each well. Some wells were reserved for positive controls and inoculum viability.

S. aureus 340 = test: MIC, broth microdilution; type: cell-based, Staphylococcus aureus; conditions: for MIC: Staphylococcus aureus, 340, 24 h
Method: as §1, §2

P. aeruginosa ATCC 27853 = test: MIC, broth microdilution; type: cell-based, Pseudomonas aeruginosa; conditions: Pseudomonas aeruginosa, ATCC27853, 24 h, ATCC strain
Method: as §1, §2

P. aeruginosa 1051575 = test: MIC, broth microdilution; type: cell-based, Pseudomonas aeruginosa; conditions: for MIC: Pseudomonas aeruginosa, 1051575, 24 h, 24 h
Method: as §1, §2

E. coli ATCC 25922 = test: MIC, broth microdilution; type: cell-based, Escherichia coli; conditions: Escherichia coli, ATCC25922, 24 h, ATCC strain
Method: as §1, §2

E. coli 1956 = test: MIC, broth microdilution; type: cell-based, Escherichia coli; conditions: Escherichia coli, 1956, 24 h
Method: as §1, §2

S. intermedius 1051997 = test: MIC, broth microdilution; type: cell-based, Staphylococcus intermedius; conditions: for MIC: Staphylococcus intermedius, 1051997, 24 h, 24 h
Method: as §1, §2

E. faecalis ATCC29212 = test: MIC, broth microdilution; type: cell-based, Enterococccus faecalis; conditions: Enterococcus faecalis, ATCC29212, 24 h, ATCC strain, read-out: MIC E. faecalis 29212
Method: as §1, §2

[2] = test system: Gram-positive and Gram-negative human and veterinary reference strains; test: MIC against the panel of Gram-positive and Gram-negative reference strains; type: cell-based; conditions: for MIC: Homo sapiens, 24 h, over several or all of the tested pathogens
From the text: Typically, cytotoxicity was expressed as the half maximal inhibitory concentration (IC50), defined as the concentration of a compound that decreases cell viability by 50% relative to untreated cells. This parameter provides a quantitative measure of a compound’s toxic potential toward mammalian cells. To facilitate data interpretation, we defined the Therapeutic Ratio (TR) as the ratio of IC50 (µg/mL) to MIC (µg/mL). This dimensionless parameter provides a straightforward measure of antibacterial selectivity, allowing direct comparison of cytotoxicity and antibacterial potency. A high TR value indicates compounds with strong antibacterial activity at concentrations far below their cytotoxic threshold, whereas a TR close to unity reflects poor selectivity and limited therapeutic potential. […] Within the Claramine A series, variations in IC50 strongly impacted TR values (Figure 5).
as §1, §2

[3] = test system: S. aureus 340 and P. aeruginosa 1051575; test: MIC against S. aureus and P. aeruginosa strains (Figure 6); type: cell-based; conditions: range over both strains, C-24 methyl ester series
Method: as §1, §2

Row | Compound | IC50 [1] | MIC (S. aureus ATCC 25923) | MIC (S. aureus 340) | MIC (P. aeruginosa ATCC 27853) | MIC (P. aeruginosa 1051575) | MIC (E. coli ATCC 25922) | MIC (E. coli 1956) | MIC (S. intermedius 1051997) | MIC (E. faecalis ATCC29212) | MIC ([2]; read-out: MIC) | Therapeutic Ratio (TR) ([2]; IC50 (CHO)/MIC, over several of the tested pathogens) | MIC [2] | IC50 CHO [1] | MIC [3] | MIC S. aureus 340 (S. aureus 340; 24 h) | Therapeutic Ratio (TR) (P. aeruginosa 1051575; IC50 (CHO)/MIC, P. aeruginosa) | Therapeutic Ratio (TR) (S. intermedius 1051997; IC50 (CHO)/MIC, S. intermedius)
1 | CCOC(=O)CCC(C)C1CCC2C3C(O)CC4CC(NCCCNCCCCNCCCN)CCC4(C)C3CCC12C (stereo not shown) [Claramine C21] | 45 µg/mL (≈ 74.4 µM) | 4 µg/mL (≈ 6.61 µM) | 4 µg/mL (≈ 6.61 µM) | 15 µg/mL (≈ 24.8 µM) | 15 µg/mL (≈ 24.8 µM) | 15 µg/mL (≈ 24.8 µM) | 30 µg/mL (≈ 49.6 µM) | 4 µg/mL (≈ 6.61 µM) | 2 µg/mL (≈ 3.31 µM) |  |  |  |  |  |  |  | 
2 | COC(=O)CCC(C)C1CCC2C3C(O)CC4CC(NCCCNCCCCNCCCN)CCC4(C)C3CCC12C (stereo not shown) [Claramine C01] | 24 µg/mL (≈ 40.6 µM) | 4 µg/mL (≈ 6.77 µM) | 4 µg/mL (≈ 6.77 µM) | 30 µg/mL (≈ 50.8 µM) | 7 µg/mL (≈ 11.8 µM) | 30 µg/mL (≈ 50.8 µM) | 60 µg/mL (≈ 102 µM) | 2 µg/mL (≈ 3.38 µM) | 15 µg/mL (≈ 25.4 µM) |  |  |  |  |  |  |  | 
3 | COC(=O)CCC(C)C1CCC2C3CCC4CC(NCCNCCNCCNCCNCN)CCC4(C)C3CC(O)C12C (stereo not shown) [Claramine A15] | 93 µg/mL (≈ 153 µM) | 4 µg/mL (≈ 6.59 µM) | 6 µg/mL (≈ 9.89 µM) | 8 µg/mL (≈ 13.2 µM) | 8 µg/mL (≈ 13.2 µM) | 8 µg/mL (≈ 13.2 µM) | 14 µg/mL (≈ 23.1 µM) | 1 µg/mL (≈ 1.65 µM) | 16 µg/mL (≈ 26.4 µM) | < 15 µg/mL | > 5 |  |  |  |  |  | 
4 | COC(=O)CCC(C)C1CCC2C3C(O)CC4CC(NCCCN5CCN(CCCN)CC5)CCC4(C)C3CC(O)C12C (stereo not shown) [Claramine B07] | > 60 µg/mL | 4 µg/mL (≈ 6.61 µM) | 8 µg/mL (≈ 13.2 µM) | 30 µg/mL (≈ 49.6 µM) | 15 µg/mL (≈ 24.8 µM) | 15 µg/mL (≈ 24.8 µM) |  | 4 µg/mL (≈ 6.61 µM) | 8 µg/mL (≈ 13.2 µM) |  |  | 0.7 to 30 µg/mL (≈ 1.16 to 49.6 µM) | 80 µg/mL (≈ 132 µM) |  |  |  | 
5 | COC(=O)CCC(C)C1CCC2C3CCC4CC(NCCCN(C)CCCN)CCC4(C)C3CC(O)C12C (stereo not shown) [Claramine A16] |  |  |  |  |  |  |  |  |  |  |  |  |  | 7 to 14 µg/mL (≈ 13.1 to 26.2 µM) |  |  | 
6 | CC(C)OC(=O)CCC(C)C1CCC2C3C(O)CC4CC(NCCCNCCCCN)CCC4(C)C3CC(O)C12C (stereo not shown) [Claramine B14] | 67 µg/mL (≈ 116 µM) | 7 µg/mL (≈ 12.1 µM) | 14 µg/mL (≈ 24.2 µM) | 15 µg/mL (≈ 26 µM) | 7 µg/mL (≈ 12.1 µM) | 4 µg/mL (≈ 6.92 µM) | 30 µg/mL (≈ 51.9 µM) | 4 µg/mL (≈ 6.92 µM) | 30 µg/mL (≈ 51.9 µM) |  |  |  |  |  |  |  | 
7 | CC(C)OC(=O)CCC(C)C1CCC2C3CCC4CC(NCCN(CCN)CCN)CCC4(C)C3CCC12C (stereo not shown) [Claramine E22] | 107 µg/mL (≈ 196 µM) | 14 µg/mL (≈ 25.6 µM) | 14 µg/mL (≈ 25.6 µM) | 110 µg/mL (≈ 201 µM) | 55 µg/mL (≈ 101 µM) | 110 µg/mL (≈ 201 µM) | 55 µg/mL (≈ 101 µM) | 7 µg/mL (≈ 12.8 µM) | 55 µg/mL (≈ 101 µM) |  |  |  | 105 µg/mL (≈ 192 µM) |  |  |  | 
8 | CC(C)OC(=O)CCC(C)C1CCC2C3CCC4CC(NCCCNCCCCNCCCN)CCC4(C)C3CCC12C (stereo not shown) [Claramine E01] | 24 µg/mL (≈ 39.8 µM) | 4 µg/mL (≈ 6.63 µM) | 4 µg/mL (≈ 6.63 µM) | 15 µg/mL (≈ 24.9 µM) | 8 µg/mL (≈ 13.3 µM) | 15 µg/mL (≈ 24.9 µM) | 8 µg/mL (≈ 13.3 µM) | 2 µg/mL (≈ 3.32 µM) | 8 µg/mL (≈ 13.3 µM) |  |  |  |  |  |  |  | 
9 | COC(=O)CCC(C)C1CCC2C3C(O)CC4CC(NCCCCCCN)CCC4(C)C3CC(O)C12C (stereo not shown) [Claramine B06] | > 60 µg/mL | 3 µg/mL (≈ 5.76 µM) | 3 µg/mL (≈ 5.76 µM) | 13 µg/mL (≈ 25 µM) | 13 µg/mL (≈ 25 µM) | 7 µg/mL (≈ 13.4 µM) |  | 2 µg/mL (≈ 3.84 µM) | 7 µg/mL (≈ 13.4 µM) |  |  | 0.7 to 30 µg/mL (≈ 1.34 to 57.6 µM) | 60 µg/mL (≈ 115 µM) |  |  |  | 
10 | COC(=O)CCC(C)C1CCC2C3CCC4CC(NCCCNCCCN)CCC4(C)C3CCC12C (stereo not shown) [Claramine E09] | > 60 µg/mL | 16 µg/mL (≈ 31.8 µM) | 1 µg/mL (≈ 1.98 µM) | 32 µg/mL (≈ 63.5 µM) |  | 32 µg/mL (≈ 63.5 µM) | 3 µg/mL (≈ 5.95 µM) | 0.7 µg/mL (≈ 1.39 µM) | 32 µg/mL (≈ 63.5 µM) |  |  | 0.7 to 30 µg/mL (≈ 1.39 to 59.5 µM) | 80 µg/mL (≈ 159 µM) |  | 0.7 µg/mL (≈ 1.39 µM) | > 10 | 65–114
